Data taken from ChEMBL document CHEMBL2396569, “6'-Methyl-5'-homoaristeromycin: a structural variation of the anti-orthopox virus candidate 5'-homoaristeromycin” (Bioorg Med Chem, 2013).
Activity calls are given as the source filed them. The calls are words filed in the database; no cut-off is given here.

Tests used:
[1] = Cytotoxicity against african green monkey Vero 76 cells after 3 days by neutral red uptake assay; format: cell-based; conditions: chlorocebus sabaeus
[2] = system: Vaccinia virus; assay: Antiviral activity against Vaccinia virus infected in african green monkey Vero 76 cells assessed as inhibition of virus-induced cytopathic effect after 3 days by microscopic analysis; format: functional, organism-based; conditions: Orthopoxvirus vaccinia, 72 h
[3] = system: Cowpox virus; assay: Antiviral activity against Cowpox virus infected in african green monkey Vero 76 cells assessed as inhibition of virus-induced cytopathic effect after 3 days by microscopic analysis; format: functional, organism-based; conditions: 72 h
[4] = system: Hepatitis B virus; assay: Antiviral activity against Hepatitis B virus; format: functional, organism-based
[5] = system: Vesicular stomatitis virus; assay: Antiviral activity against Vesicular stomatitis virus infected in human HEL cells assessed as inhibition of virus-induced cytopathic effect after 3 days by microscopic analysis; format: functional, organism-based; conditions: 72 h
[6] = system: Influenza B virus; assay: Antiviral activity against Influenza B virus; format: functional, organism-based
[7] = system: Human respirovirus 3; assay: Antiviral activity against Human parainfluenza virus 3; format: functional, organism-based
[8] = system: unidentified human coronavirus; assay: Antiviral activity against Human coronavirus; format: functional
[9] = system: Human alphaherpesvirus 3; assay: Antiviral activity against Varicella zoster virus; format: functional, organism-based
[10] = system: Human alphaherpesvirus 1; assay: Antiviral activity against Herpes simplex virus 1; format: functional, organism-based
[11] = system: unidentified adenovirus; assay: Antiviral activity against Adenovirus; format: functional, organism-based
[12] = system: Hepatitis C virus; assay: Antiviral activity against Hepatitis C virus; format: functional, organism-based; conditions: Hepacivirus hominis
[13] = system: Influenza A virus; assay: Antiviral activity against Influenza A virus H3N2; format: functional, organism-based
[14] = Cytotoxicity against human HEL cells after 3 days by neutral red uptake assay; format: cell-based
[15] = system: Human alphaherpesvirus 2; assay: Antiviral activity against Herpes simplex virus 2; format: functional, organism-based
[16] = system: Feline coronavirus; assay: Antiviral activity against Feline coronavirus; format: functional, organism-based
[17] = system: Coxsackievirus B4; assay: Antiviral activity against Human coxsackievirus B4; format: functional, organism-based
[18] = system: Venezuelan equine encephalitis virus; assay: Antiviral activity against Venezuelan equine encephalitis virus; format: functional, organism-based
[19] = system: Human gammaherpesvirus 4; assay: Antiviral activity against Epstein Barr virus infected in human Daudi cells assessed as inhibition of virus-induced cytopathic effect after 3 days by microscopic analysis; format: functional, organism-based; conditions: human gammaherpesvirus 4, Daudi, 72 h
[20] = system: Measles morbillivirus; assay: Antiviral activity against Measles virus; format: functional, organism-based
[21] = system: Enterovirus; assay: Antiviral activity against Rhinovirus; format: functional, organism-based
[22] = system: Dengue virus; assay: Antiviral activity against Dengue virus; format: functional, organism-based
[23] = system: Pichinde virus; assay: Antiviral activity against Pichinde virus; format: functional, organism-based
[24] = system: Respiratory syncytial virus; assay: Antiviral activity against Respiratory syncytial virus; format: functional, organism-based
[25] = system: Influenza A virus; assay: Antiviral activity against Influenza A virus H1N1; format: functional, organism-based
[26] = system: Punta Toro virus; assay: Antiviral activity against Punta Toro virus; format: functional, organism-based
[27] = Cytotoxicity against human Daudi cells after 3 days by neutral red uptake assay; format: cell-based
[28] = system: Human betaherpesvirus 5; assay: Antiviral activity against Human cytomegalovirus; format: functional, organism-based
[29] = system: West Nile virus; assay: Antiviral activity against West Nile virus; format: functional, organism-based
[30] = system: Reovirus sp.; assay: Antiviral activity against Reovirus; format: functional, organism-based
[31] = system: Yellow fever virus; assay: Antiviral activity against Yellow fever virus; format: functional, organism-based
[32] = system: Sindbis virus; assay: Antiviral activity against Sindbis virus; format: functional, organism-based

Row | Compound | CC50 at 72 h [1] [µM] | IC50 [2] [µM] | IC50 [3] [µM] | Activity [4] | IC50 [5] [µM] | Activity [6] | Activity [7] | Activity [8] | Activity [9] | Activity [10] | Activity [11] | Activity [12] | Activity [13] | CC50 at 72 h [14] [µM] | Activity [15] | Activity [16] | Activity [17] | Activity [18] | IC50 [19] [µM] | Activity [20] | other results
1 | Nc1ncnc2c1ncn2[C@@H]1C[C@H](CCO)[C@@H](O)[C@H]1O | > 300 | 4.29 | 0.49 | – | – | – | – | – | – | – | – | – | – | – | – | – | – | – | – | – | –
2 | C[C@@H](O)C[C@H]1C[C@@H](n2cnc3c(N)ncnc32)[C@H](O)[C@@H]1O (mixture of isomers) | > 300 | 24 | 223 | inactive | 4.8 | inactive | inactive | inactive | inactive | inactive | inactive | inactive | inactive | > 300 | inactive | inactive | inactive | inactive | 6.6 | inactive | Activity [21]: inactive; Activity [22]: inactive; Activity [23]: inactive; Activity [24]: inactive; Activity [25]: inactive; Activity [26]: inactive; CC50 at 72 h [27]: > 300 µM; Activity [28]: inactive; Activity [29]: inactive; Activity [30]: inactive; Activity [31]: inactive; Activity [32]: inactive
3 | C[C@H](O)C[C@H]1C[C@@H](n2cnc3c(N)ncnc32)[C@H](O)[C@@H]1O (mixture of isomers) | > 300 | 4.8 | 164 | inactive | 1.6 | inactive | inactive | inactive | inactive | inactive | inactive | inactive | inactive | > 300 | inactive | inactive | inactive | inactive | 6.4 | inactive | Activity [21]: inactive; Activity [22]: inactive; Activity [23]: inactive; Activity [24]: inactive; Activity [25]: inactive; Activity [26]: inactive; CC50 at 72 h [27]: > 300 µM; Activity [28]: inactive; Activity [29]: inactive; Activity [30]: inactive; Activity [31]: inactive; Activity [32]: inactive
